Laboratory results as given in patent US10925914B2, “Method for alleviating depression using a health functional food containing Vaccinium bracteatum Thunb fruit extract” (priority 2016, dated 2021).
Structures can show the parent of a compound that is named as a salt.

Key:
[1] = tested on: SH-SY5Y cells (neuroblastoma, human dopaminergic neuronal cells); conditions: 24 h
Procedure: SH-SY5Y cells (neuroblastoma, human dopaminergic neuronal cells) were incubated in MEM medium containing 1% antimycotics/antibiotics and 10% FBS. The cells were seeded at a density of 10^5 cell/ […] in a 96-well plate, and then incubated for 24 hours.
The cell line used was SH-SY5Y cells, and the cells were treated with the Vaccinium bracteatum Thunb. fruit hot-water extract at concentrations of 1, 3, 10, 30, and 100 μg/ml to investigate cytotoxicity.
(§1) After 24 hours, cell viability was determined using an MTT assay.
as §1

ICR male mice = assay: Forced swimming test after 6-day oral administration; type: in vivo; conditions: comparison group, 6 days
Procedure: The ICR male mice were orally administered with the Vaccinium bracteatum Thunb. fruit extract of the present invention. For a comparative group, escitalopram oxalate used an anti-depressant was orally administered. These were administered for 6 days according to the test. Before drug administration, for the pre-test (pre-swim), tap water around 25° C. was poured into a cylindrical water tank (20 cm in diameter, 40 cm in height) from the bottom of the cylinder to 15 cm, and then the mice were put into the water tank, forced to swim for 15 minutes, taken out from the water, wiped with a dry towel, and then returned to breeding boxes. After 6 days of drug administration, the present test (post-swim) was carried out. […] The recorded image was analyzed excluding the first minute therefrom, and animal behavior during the last 5 minutes was classified into 3 types: immobility behavior (the mouse only floated near the surface of the water, slightly moving while only a part of the upper body including the face was above water), swimming behavior (the mouse moved horizontally around the cylinder moving the front and hind legs in a swimming motion), and climbing behavior (the mouse scratched the wall, somewhat violently kicking the front extremities to move remain above water). The duration of each behavior type was measured.

corticosterone (COR) = assay: Plasma corticosterone (COR) by ELISA after 6-day administration; type: in vivo, mice; conditions: escitalopram oxalate 10 mg/kg, 6 days; no significance
Procedure: The effects on concentration changes of the neurotransmitter NE associated with depression and the stress hormone COR in normal conditions were measured by isolating plasma from the mice after 6 day-administration of each drug and using the Abnova ELISA kit according to the instruction of the manufacturer.

C[C@]12C[C@H](O)[C@H]3[C@@H](CCC4=CC(=O)CC[C@@]43C)[C@@H]1CC[C@@H]2C(=O)CO [corticosterone]
cytotoxicity ([1]; 1 mM): 50-60%

OO [H2O2, hydrogen peroxide]
cell viability ([1]; 10 μM): 50-60%

CN(C)CCC[C@@]1(c2ccc(F)cc2)OCc2cc(C#N)ccc21 [escitalopram oxalate]
swimming time (ICR male mice; control 51.82±3.38 seconds): 128.16 ± 6.65 s
immobility time (ICR male mice; last 5 min of 6 min swim, control 245.48±4.05 seconds): 169.65 ± 7.15 s
level of the stress hormone corticosterone compared with the control group (corticosterone (COR)): decrease tendency
